Reference: patent publication US20100179143A1, “NAPHTHYRIDINE, DERIVATIVES AS P13 KINASE INHIBITORS” (Smithkline Beecham Corporation, priority 2007, published 2010)
Where two headings read alike, the source gives them in different places. Values belong to the compound of their own block, whether it stands above or below them.

What was measured:
PI3Kα = biological target: T1, PI3Kα (Homo sapiens, UniProt P42336); assay: PI3K alpha Leadseeker SPA Assay; type: biochemical; settings: in at least one experimental run; read-out: IC50 against PI3Kα
T1 construct: His
T1 sequence (P42336 whole entry): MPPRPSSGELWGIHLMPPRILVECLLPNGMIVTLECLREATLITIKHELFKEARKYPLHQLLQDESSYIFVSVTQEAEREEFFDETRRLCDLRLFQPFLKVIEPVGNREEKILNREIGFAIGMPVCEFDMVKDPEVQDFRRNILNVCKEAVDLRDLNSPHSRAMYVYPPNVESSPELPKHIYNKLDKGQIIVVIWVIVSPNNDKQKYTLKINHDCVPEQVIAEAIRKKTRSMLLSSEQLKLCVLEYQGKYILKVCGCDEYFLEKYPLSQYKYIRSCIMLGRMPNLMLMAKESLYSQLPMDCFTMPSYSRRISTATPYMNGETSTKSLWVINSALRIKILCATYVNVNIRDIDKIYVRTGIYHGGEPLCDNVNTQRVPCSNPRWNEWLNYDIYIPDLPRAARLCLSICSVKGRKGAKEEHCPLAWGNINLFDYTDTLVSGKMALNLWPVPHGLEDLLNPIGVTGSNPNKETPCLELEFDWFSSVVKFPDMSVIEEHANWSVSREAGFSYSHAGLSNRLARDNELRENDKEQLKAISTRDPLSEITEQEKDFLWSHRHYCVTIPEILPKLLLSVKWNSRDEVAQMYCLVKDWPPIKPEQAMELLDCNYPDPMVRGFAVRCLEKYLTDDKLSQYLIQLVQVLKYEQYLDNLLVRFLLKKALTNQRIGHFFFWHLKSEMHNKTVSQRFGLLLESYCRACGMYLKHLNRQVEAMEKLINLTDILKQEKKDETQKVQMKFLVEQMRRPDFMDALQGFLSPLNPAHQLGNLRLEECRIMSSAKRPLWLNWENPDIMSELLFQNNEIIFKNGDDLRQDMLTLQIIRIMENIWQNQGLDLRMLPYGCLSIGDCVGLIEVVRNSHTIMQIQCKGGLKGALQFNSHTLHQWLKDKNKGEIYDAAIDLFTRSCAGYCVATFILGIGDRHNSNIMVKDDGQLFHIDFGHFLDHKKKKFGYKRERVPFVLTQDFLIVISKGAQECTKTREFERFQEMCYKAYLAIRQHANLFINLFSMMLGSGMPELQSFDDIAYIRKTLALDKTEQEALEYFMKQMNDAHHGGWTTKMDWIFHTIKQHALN
T1 sequence (P27986 whole entry partner): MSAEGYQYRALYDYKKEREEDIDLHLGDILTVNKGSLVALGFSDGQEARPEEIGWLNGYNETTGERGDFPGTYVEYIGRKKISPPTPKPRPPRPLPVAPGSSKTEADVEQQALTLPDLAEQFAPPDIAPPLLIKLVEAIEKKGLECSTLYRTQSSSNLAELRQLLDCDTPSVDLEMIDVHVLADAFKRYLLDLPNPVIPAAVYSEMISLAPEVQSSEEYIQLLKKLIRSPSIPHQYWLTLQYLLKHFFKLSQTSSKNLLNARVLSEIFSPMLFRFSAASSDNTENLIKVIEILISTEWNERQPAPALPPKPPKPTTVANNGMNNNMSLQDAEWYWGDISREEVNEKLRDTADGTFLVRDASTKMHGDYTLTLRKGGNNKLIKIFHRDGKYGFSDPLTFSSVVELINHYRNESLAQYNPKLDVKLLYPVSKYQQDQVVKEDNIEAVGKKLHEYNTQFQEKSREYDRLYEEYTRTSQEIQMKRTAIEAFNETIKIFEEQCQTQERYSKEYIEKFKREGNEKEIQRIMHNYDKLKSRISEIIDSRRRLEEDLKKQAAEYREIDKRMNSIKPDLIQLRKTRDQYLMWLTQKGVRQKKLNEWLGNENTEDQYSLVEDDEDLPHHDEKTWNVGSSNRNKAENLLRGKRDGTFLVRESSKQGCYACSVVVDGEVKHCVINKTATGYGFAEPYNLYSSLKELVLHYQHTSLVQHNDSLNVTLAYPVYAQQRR
Method: PI3K alpha Leadseeker SPA Assay
Compounds of the present invention were tested according to the following assays and found as inhibitors of PI3 kinases, particularly PI3Kα. The exemplified compounds were tested and found active against PI3Kα. The IC50's ranged from about 1 nM to 10 μM.
SPA imaging beads are microspheres containing scintillant which emit light in the red region of the visible spectrum. As a result, these beads are ideally suited to use with a CCD imager such as the Viewlux. The Leadseeker beads used in this system are polystyrene beads that have been coupled with polyethyleneimine. When added to the assay mixture, the beads absorb both the substrate (PIP2) and product (PIP3). Adsorbed P^33-PIP3 will cause an increase in signal, measured as ADUs (analog to digital units). This protocol details the use of the PEI-PS Leadseeker beads for assays using His-p110/p85 PI3K alpha.
Solid compounds are typically plated with 0.1 μl of 100% DMSO in all wells (except column 6 and 18) of a 384-well, flat bottom, low volume plate (Greiner 784075). The compounds are serially diluted (3-fold in 100% DMSO) across the plate from column 1 to column 12 and column 13 to column 24 and leave column 6 and 18 containing only DMSO to yield 11 concentrations for each test compound.
The assay buffer contains MOPS (pH 6.5), CHAPS, and DTT. PI3K alpha and PIP2 (L-alpha-D-myo-Phosphatidylinositol 4,5-bisphosphate [P1(4,5)P2]3-O-phospho linked, D(+)-sn-1,2-di-O-octanoylglyceryl, CellSignals #901) are mixed and incubated in the plate with compound for 30 min prior to starting the reaction with the addition of P^33-ATP and MgCl2 (reagents added using Zoom). Enzyme-free wells (column 18) are typically done to determine the low control. PEI-PS Leadseeker beads in PBS/EDTA/CHAPS are added (by Multidrop) to quench the reaction, and the plates are allowed to incubate for at least one hour (typically overnight) before centrifugation. The signal is determined using a Viewlux detector and is then imported into curve fitting software (Activity Base) for construction of concentration response curves. The percent inhibition of activity was calculated relative to high controls (C1, 0.1 μl DMSO in column 6, rows A-P)) and low controls (C2, 5 μl of 40 uM PIP2 in buffer in column 18, rows A-P) using, 100*(1−(U1−C2)/(C1-C2)). The concentration of test compound yielding 50% inhibition was determined using the equation, y=((Vmax*x)/(K+x))+Y2, where “K” was equal to the IC50. The IC50 values were converted to pIC50 values, i.e., −log IC50 in Molar concentration.

Class I PI3-kinases = settings: cited from earlier work
CK2 protein kinase = settings: read-out: inhibition of CK2 protein kinase; cited from earlier work
neutrophils [1] = settings: cited from earlier work
neutrophils [2] = settings: treatment of neutrophils; Thelen et al. 1994; cited from earlier work

SMILES: O=c1cc(N2CCOCC2)oc2c(-c3ccccc3)cccc12 [LY294002]
IC50 (Class I PI3-kinases; Fruman et al. 1998, read-out: IC50 against each of these PI3-kinases): 15000 to 20000 nM | IC50 (CK2 protein kinase): 5000 to 10000 nM | neutrophil migration (neutrophils [1]): block | superoxide release (neutrophils [1]): block

SMILES: COC[C@H]1OC(=O)c2coc3c2[C@@]1(C)C1=C(C3=O)[C@@H]2CCC(=O)[C@@]2(C)C[C@H]1OC(C)=O [wortmannin]
IC50 (Class I PI3-kinases; wortmannin, read-out: IC50 against each of the various Class I PI3-kinases): 1 to 10 nM | fMLP-induced respiratory burst response (neutrophils [2]): prevents the fMLP-induced respiratory burst response | neutrophil migration (neutrophils [1]): block | superoxide release (neutrophils [1]): block

SMILES: CN1CCN(c2ccnc3ccc(-c4cncc(S(=O)(=O)Nc5ccc(F)cc5F)c4)nc23)CC1 [Example 32, N-(2,4-difluorophenyl)-5-[8-(4-methyl-1-piperazinyl)-1,5-naphthyridin-2-yl]-3-pyridinesulfonamide]
IC50 (PI3Kα): 50 nM

SMILES: OCc1ccc(-c2ccc3nccc(-c4ccncc4)c3n2)o1 [Example 1, {5-[8-(4-pyridinyl)-1,5-naphthyridin-2-yl]-2-furanyl}methanol]
IC50 (PI3Kα): 40 nM

Other lines, results leading:

IC50 (PI3Kα): 3 nM
SMILES: CN(C)S(=O)(=O)c1cc(-c2ccc3nccc(-c4ccncc4)c3n2)cnc1N [Example 2, 2-amino-N,N-dimethyl-5-[8-(4-pyridinyl)-1,5-naphthyridin-2-yl]-3-pyridinesulfonamide]

IC50 (PI3Kα): 6 nM
SMILES: CS(=O)(=O)Nc1ccc(-c2ccnc3ccc(-c4cncc(S(N)(=O)=O)c4)nc23)cc1 [Example 11, 5-(8-{4-[(methylsulfonyl)amino]phenyl}-1,5-naphthyridin-2-yl)-3-pyridinesulfonamide]

IC50 (PI3Kα): 31 nM
SMILES: c1ccc(-c2n[nH]cc2-c2ccc3nccc(-c4ccncc4)c3n2)cc1 [Example 5, 2-(3-phenyl-1H-pyrazol-4-yl)-8-(4-pyridinyl)-1,5-naphthyridine]

IC50 (PI3Kα): 27 nM
SMILES: NS(=O)(=O)c1cncc(-c2ccc3nccc(-c4cccc(OC(F)(F)F)c4)c3n2)c1 [Example 9, 5-(8-{3-[(trifluoromethyl)oxy]phenyl}-1,5-naphthyridin-2-yl)-3-pyridinesulfonamide]
